Biological target: c-MET (Homo sapiens, UniProt P08581)
Test: Ki determination for the inhibition of c-MET (standard radiometric 33P-ATP kinase assay, polyE4Y substrate)
Format: biochemical
Conditions: 1.0 nM c-Met, 35 μM ATP, 0.5 mg/mL polyE4Y, 20 min; competitive tight-binding fit
Method in brief: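 Ki obtained by fitting data to competitive tight-binding inhibition kinetics. c-Met at 1.0 nM phosphorylated polyE4Y (0.5 mg/mL) with 35 μM 33P-ATP for 20 min in pH 7.5 HEPES buffer with MgCl2, NaCl, BSA and DTT. Incorporated label measured by scintillation after TCA precipitation on filters.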

Sequence of c-MET (P08581 25-1390): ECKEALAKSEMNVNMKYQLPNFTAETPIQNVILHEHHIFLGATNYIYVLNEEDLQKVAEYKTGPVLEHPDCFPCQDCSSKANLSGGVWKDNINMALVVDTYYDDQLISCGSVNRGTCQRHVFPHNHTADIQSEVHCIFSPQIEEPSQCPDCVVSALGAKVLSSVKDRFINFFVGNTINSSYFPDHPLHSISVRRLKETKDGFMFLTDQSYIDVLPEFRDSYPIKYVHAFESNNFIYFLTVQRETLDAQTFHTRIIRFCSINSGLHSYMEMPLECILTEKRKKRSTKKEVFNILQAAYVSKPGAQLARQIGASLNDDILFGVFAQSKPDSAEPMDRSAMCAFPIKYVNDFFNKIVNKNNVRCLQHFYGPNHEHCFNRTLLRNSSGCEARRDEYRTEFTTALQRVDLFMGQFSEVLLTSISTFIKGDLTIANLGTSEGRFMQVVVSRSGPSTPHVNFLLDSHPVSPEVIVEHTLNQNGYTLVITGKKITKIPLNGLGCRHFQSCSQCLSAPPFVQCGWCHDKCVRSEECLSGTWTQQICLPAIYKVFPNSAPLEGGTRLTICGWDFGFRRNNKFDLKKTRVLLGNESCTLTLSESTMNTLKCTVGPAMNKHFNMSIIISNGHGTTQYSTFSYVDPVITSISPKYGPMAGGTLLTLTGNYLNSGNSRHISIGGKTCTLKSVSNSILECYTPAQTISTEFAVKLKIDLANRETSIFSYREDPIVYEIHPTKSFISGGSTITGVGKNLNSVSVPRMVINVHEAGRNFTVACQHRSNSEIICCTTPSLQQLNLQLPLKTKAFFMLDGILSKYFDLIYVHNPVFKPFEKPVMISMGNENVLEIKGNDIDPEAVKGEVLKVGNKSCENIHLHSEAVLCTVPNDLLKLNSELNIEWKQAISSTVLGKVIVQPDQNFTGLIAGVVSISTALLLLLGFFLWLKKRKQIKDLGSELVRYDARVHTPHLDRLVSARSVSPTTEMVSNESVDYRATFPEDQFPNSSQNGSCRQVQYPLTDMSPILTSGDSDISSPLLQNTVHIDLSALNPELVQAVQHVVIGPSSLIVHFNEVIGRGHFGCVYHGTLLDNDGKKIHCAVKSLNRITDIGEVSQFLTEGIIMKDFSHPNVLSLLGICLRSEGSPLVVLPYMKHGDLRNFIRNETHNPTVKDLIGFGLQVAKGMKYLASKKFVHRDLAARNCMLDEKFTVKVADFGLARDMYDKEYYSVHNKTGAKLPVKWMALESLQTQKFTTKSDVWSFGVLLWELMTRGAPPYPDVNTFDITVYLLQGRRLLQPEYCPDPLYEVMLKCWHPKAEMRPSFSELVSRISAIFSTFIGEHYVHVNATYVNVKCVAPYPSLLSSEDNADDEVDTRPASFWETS

| Structure (SMILES) | Ki [nM] |
| --- | --- |
| C[C@@H](C(=O)N1CC=C(c2cnc(N)c(-c3nnnn3-c3cccc(F)c3F)c2)CC1)N1CCCC1=O [I-A-517] | 100 to 1000 |
| Nc1ncc(-c2cccnc2)cc1-c1ncsc1-c1cccc(Cl)c1Cl [I-C-8, 3-(5-(2,3-Dichlorophenyl)thiazol-4-yl)-5-(pyridin-3-yl)pyridin-2-amine] | 100 to 1000 |
| Nc1ncc(-c2cccnc2)cc1-c1nnnn1-c1c(F)ccc(F)c1Cl [I-A-618] | 100 to 1000 |
| Nc1ncc(-c2ccc(CN3CCCC3)cc2)cc1-c1nnnn1-c1cc(Cl)ccc1F [I-A-595] | 100 to 1000 |
| Nc1ncc(-c2ccc(NC(=O)Nc3cccnc3)cc2)cc1-c1nnnn1-c1cccc(F)c1F [I-A-278] | 100 to 1000 |
| COc1ccc(-c2cnc(N)c(-c3nnnn3-c3cccc(F)c3F)c2)cc1 [I-A-222] | ≤ 100 |
| Nc1ncc(C2=CCCN(C(=O)C(F)(F)F)CC2)cc1-c1nnnn1-c1cccc(F)c1F [I-A-647] | 100 to 1000 |
| CC(=O)Nc1cccc(-c2cnc(N)c(-c3nnnn3-c3c(F)ccc(F)c3Cl)c2)c1 [I-A-613] | 100 to 1000 |
| Nc1ncc(-c2cccnc2)cc1-c1nnnn1-c1c(F)cccc1F [I-A-608] | 100 to 1000 |
| COCCOc1ccc(-c2cnc(N)c(-c3nnnn3-c3cccc(F)c3F)c2)cc1OCCOC [I-A-354] | ≤ 100 |
| Nc1ncc(-c2cc(F)ccc2O)cc1-c1nnnn1-c1cccc(F)c1F [I-A-292] | ≤ 100 |
| Nc1ncc(-c2ccc(CN3CCOCC3)cc2)nc1-c1nnc(O)n1-c1cccc(F)c1F [I-A-16] | 100 to 1000 |
| Nc1ncc(C2=CCN(C(=O)C3CCOCC3)CC2)cc1-c1nnnn1-c1cccc(F)c1F [I-A-521] | ≤ 100 |
| N#Cc1ccc(-c2cnc(N)c(-c3nnnn3-c3cccc(Cl)c3Cl)c2)cc1 [I-A-89] | 100 to 1000 |
| Nc1ncc(-c2ccc(CN3CCCC3)cc2)cc1-c1nnnn1-c1cc(F)cc(F)c1Cl [I-A-601] | ≤ 100 |
| COc1ccc(-c2cnc(N)c(-c3nncn3-c3cccc(Cl)c3Cl)c2)cc1OC [I-A-77] | 100 to 1000 |

The next lines start with the values.

| Ki [nM] | Structure (SMILES) |
| --- | --- |
| ≤ 100 | Nc1ncc(-c2cnn([C@@H]3CCOC3)c2)cc1-c1nnnn1-c1cccc(F)c1F [I-A-419] |
| ≤ 100 | Nc1ncc(-c2ccc(CN3CCC[C@H]3CO)cc2)cc1-c1nnnn1-c1cccc(F)c1F [I-A-133] |
| ≤ 100 | CN1CCN(Cc2ccc(-c3cnc(N)c(-c4nc5cnccc5n4-c4cccc(F)c4F)c3)cc2)CC1 [I-D-5] |
| ≤ 100 | Nc1ncc(-c2ccc(C3CCOC(=O)N3)cc2)cc1-c1nnnn1-c1cccc(F)c1F (centres unmarked) [I-A-325] |
| ≤ 100 | Nc1ncc(C2=CCN(C(=O)[C@@H]3CCOC3)CC2)cc1-c1nnnn1-c1cccc(F)c1F [I-A-527] |
| ≤ 100 | NCN1CCN(Cc2ccc(-c3cnc(N)c(-c4nnnn4-c4cccc(Cl)c4Cl)c3)cc2)CC1 [I-A-108] |
| ≤ 100 | NC(=O)[C@@H]1CCCN1Cc1ccc(-c2cnc(N)c(-c3nnnn3-c3cccc(F)c3F)c2)cc1 [I-A-132] |
